Test results published in PubChem BioAssay AID248 (DTP/NCI, 2004).
Toxic doses and inconclusive results are not listed. No stated cut-off is given here; in the data, active means T/C of 150% or more; inactive means T/C below 125%.

Tested on: L1210 leukemia ip in BDF1 mice, survival T/C
Test: NCI In Vivo Anticancer Drug Screen. Data for tumor model L1210 Leukemia (intraperitoneal) in B6D2F1 (BDF1) mice
Details: endpoint: mean survival time, higher = longer survival
In short: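 Ratio derived from survival: compound-dosed mice over vehicle-dosed mice, all bearing a transplantable tumor.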

[1] = dose: 200.0 mg/kg/injection, schedule: Q04DX002 (ip), vehicle: saline with Tween-80
[2] = dose: 400.0 mg/kg/injection, schedule: Q04DX002 (ip), vehicle: saline with Tween-80
[3] = dose: 100.0 mg/kg/injection, schedule: Q01DX001 (ip), vehicle: saline
[4] = dose: 200.0 mg/kg/injection, schedule: Q01DX001 (ip), vehicle: saline
[5] = dose: 400.0 mg/kg/injection, schedule: Q01DX001 (ip), vehicle: saline
[6] = dose: 100.0 mg/kg/injection, schedule: Q01DX001 (ip), vehicle: Klucel (hydroxypropylcellulose) (HPC)
[7] = dose: 200.0 mg/kg/injection, schedule: Q01DX001 (ip), vehicle: Klucel (hydroxypropylcellulose) (HPC)
[8] = dose: 50.0 mg/kg/injection, schedule: Q01DX009 (ip), vehicle: saline
[9] = dose: 12.5 mg/kg/injection, schedule: Q01DX009 (ip), vehicle: acetone
[10] = dose: 25.0 mg/kg/injection, schedule: Q01DX009 (ip), vehicle: acetone
[11] = dose: 50.0 mg/kg/injection, schedule: Q01DX009 (ip), vehicle: acetone

Measured: T/C

O=Cc1ccc(/C=C2\NC(=O)NC2=O)cc1
inactive: dose: 25.0 mg/kg/injection, schedule: Q01DX009 (ip), vehicle: water 90 % of control | dose: 50.0 mg/kg/injection, schedule: Q01DX009 (ip), vehicle: water 92 % of control | dose: 100.0 mg/kg/injection, schedule: Q01DX009 (ip), vehicle: water 96 % of control | dose: 200.0 mg/kg/injection, schedule: Q01DX009 (ip), vehicle: water 93 % of control

CCC[CH2][Sn]1([CH2]CCC)[CH2]CC(=O)[O]1
inactive: dose: 100.0 mg/kg/injection, schedule: Q04DX002 (ip), vehicle: saline with Tween-80 103 % of control | [1] 95 % of control | [2] 92 % of control

O=[N+]([O-])c1ccc(NC(CO)C(O)C(O)C(O)CO)c([N+](=O)[O-])c1 (stereo not given)
inactive: [3] 102 % of control | [4] 98 % of control | [5] 98 % of control

CC(=O)OC1C(C=C(C)C)OC2CC3(C)C4=C(CCC3(C)C2C1C)C1(C)CCC(O)C(C)(C)C1CC4 (stereo not given)
inactive: dose: 20.0 mg/kg/injection, schedule: Q01DX001 (sc), vehicle: steriod suspending solution 104 % of control | dose: 40.0 mg/kg/injection, schedule: Q01DX001 (sc), vehicle: steriod suspending solution 102 % of control | dose: 50.0 mg/kg/injection, schedule: Q01DX001 (sc), vehicle: steriod suspending solution 101 % of control | dose: 80.0 mg/kg/injection, schedule: Q01DX001 (sc), vehicle: steriod suspending solution 102 % of control | dose: 100.0 mg/kg/injection, schedule: Q01DX001 (sc), vehicle: steriod suspending solution 92 % of control | dose: 160.0 mg/kg/injection, schedule: Q01DX001 (sc), vehicle: steriod suspending solution 102 % of control | dose: 200.0 mg/kg/injection, schedule: Q01DX001 (sc), vehicle: steriod suspending solution 97 % of control | dose: 400.0 mg/kg/injection, schedule: Q01DX001 (sc), vehicle: steriod suspending solution 106 % of control

O=C(C#Cc1ccccc1)N1CCCCC1
inactive: [1] 98 % of control | [2] 101 % of control

CC1CCc2cccc(NC(=O)NCCCl)c21 (stereo not given)
inactive: [6] 99 % of control | dose: 100.0 mg/kg/injection, schedule: Q04DX003 (ip), vehicle: Klucel (hydroxypropylcellulose) (HPC) 92 % of control | [7] 91 % of control | dose: 200.0 mg/kg/injection, schedule: Q04DX003 (ip), vehicle: Klucel (hydroxypropylcellulose) (HPC) 92 % of control | dose: 400.0 mg/kg/injection, schedule: Q01DX001 (ip), vehicle: Klucel (hydroxypropylcellulose) (HPC) 96 % of control | dose: 400.0 mg/kg/injection, schedule: Q04DX003 (ip), vehicle: Klucel (hydroxypropylcellulose) (HPC) 92 % of control

CCCOC(=O)CCl
inactive: [3] 113 % of control

Cc1ccc(CNC(=O)Nc2cccc(C(F)(F)F)c2)cc1C
inactive: dose: 100.0 mg/kg/injection, schedule: Q01DX009 (ip), vehicle: gum acacia 89 % of control | dose: 200.0 mg/kg/injection, schedule: Q01DX009 (ip), vehicle: gum acacia 89 % of control

[Cu+].[S-]c1ccsc1
inactive: dose: 10.0 mg/kg/injection, schedule: Q01DX001 (ip), vehicle: carboxymethylcellulose (CMC) 95 % of control | dose: 20.0 mg/kg/injection, schedule: Q01DX001 (ip), vehicle: carboxymethylcellulose (CMC) 93 % of control | dose: 40.0 mg/kg/injection, schedule: Q01DX001 (ip), vehicle: carboxymethylcellulose (CMC) 90 % of control | dose: 80.0 mg/kg/injection, schedule: Q01DX001 (ip), vehicle: carboxymethylcellulose (CMC) 106 % of control

CCOc1cc[n+]([O-])cc1
inactive: [8] 90 % of control | [6] 96 % of control | dose: 100.0 mg/kg/injection, schedule: Q01DX009 (ip), vehicle: saline 90 % of control | dose: 100.0 mg/kg/injection, schedule: Q04DX003 (ip), vehicle: saline 100 % of control | [7] 108 % of control | dose: 200.0 mg/kg/injection, schedule: Q01DX009 (ip), vehicle: saline 90 % of control | dose: 200.0 mg/kg/injection, schedule: Q04DX003 (ip), vehicle: saline 96 % of control

CN(C)[C@@H]1C(=O)C(C(=O)NCNc2nc3n[nH]nc3c(=O)[nH]2)=C(O)[C@@]2(O)C(=O)C3=C(O)c4c(O)cccc4[C@@](C)(O)[C@H]3C[C@@H]12
inactive: [9] 98 % of control | [10] 104 % of control | [11] 122 % of control | [3] 102 % of control | dose: 100.0 mg/kg/injection, schedule: Q01DX009 (ip), vehicle: acetone 117 % of control | [4] 96 % of control | dose: 200.0 mg/kg/injection, schedule: Q01DX009 (ip), vehicle: acetone 122 % of control | [5] 105 % of control

c1ccc(C2=Nc3ccccc3C(c3ccccc3)=Nc3ccccc32)cc1
inactive: dose: 100.0 mg/kg/injection, schedule: Q01DX009 (ip), vehicle: saline with Tween-80 89 % of control | dose: 200.0 mg/kg/injection, schedule: Q01DX009 (ip), vehicle: saline with Tween-80 97 % of control | dose: 400.0 mg/kg/injection, schedule: Q01DX009 (ip), vehicle: saline with Tween-80 89 % of control

Cn1c(=O)c2ccccc2c2cc(Br)ccc21
inactive: dose: 100.0 mg/kg/injection, schedule: Q04DX003 (ip), vehicle: other 90 % of control | dose: 200.0 mg/kg/injection, schedule: Q04DX003 (ip), vehicle: other 92 % of control | dose: 400.0 mg/kg/injection, schedule: Q04DX003 (ip), vehicle: other 95 % of control

CCc1ccc(C2=C(O)C(=O)C(c3ccccc3)=C(O)C2=O)cc1
inactive: [9] 95 % of control | [10] 90 % of control | dose: 33.0 mg/kg/injection, schedule: Q01DX009 (ip), vehicle: acetone 96 % of control | dose: 33.0 mg/kg/injection, schedule: Q01DX009 (ip), vehicle: saline 96 % of control | [11] 101 % of control | [8] 97 % of control | dose: 75.0 mg/kg/injection, schedule: Q01DX009 (ip), vehicle: acetone 118 % of control

O=S(=O)(NC(=S)Nc1ccc(Cl)cc1)c1ccccc1
inactive: dose: 100.0 mg/kg/injection, schedule: Q04DX003 (ip), vehicle: saline with Tween-80 110 % of control | dose: 200.0 mg/kg/injection, schedule: Q04DX003 (ip), vehicle: saline with Tween-80 107 % of control | dose: 400.0 mg/kg/injection, schedule: Q04DX003 (ip), vehicle: saline with Tween-80 93 % of control

Cc1ccc(/C(=N\N=C(N)N)C2CC2)c(C)c1
inactive: dose: 15.0 mg/kg/injection, schedule: Q01DX Z (ip), vehicle: methylcellulose (MC) 89 % of control | dose: 30.0 mg/kg/injection, schedule: Q01DX Z (ip), vehicle: methylcellulose (MC) 98 % of control | dose: 30.0 mg/kg/injection, schedule: Q01DX Z (oral), vehicle: methylcellulose (MC) 103 % of control | dose: 60.0 mg/kg/injection, schedule: Q01DX Z (ip), vehicle: methylcellulose (MC) 95 % of control | dose: 60.0 mg/kg/injection, schedule: Q01DX Z (oral), vehicle: methylcellulose (MC) 97 % of control | dose: 240.0 mg/kg/injection, schedule: Q01DX Z (oral), vehicle: methylcellulose (MC) 86 % of control

N#CCC(=O)N1Cc2cc3ccccc3nc2C1
inactive: dose: 100.0 mg/kg/injection, schedule: Q04DX003 (ip), vehicle: saline sonified 115 % of control | dose: 200.0 mg/kg/injection, schedule: Q04DX003 (ip), vehicle: saline sonified 95 % of control | dose: 400.0 mg/kg/injection, schedule: Q04DX003 (ip), vehicle: saline sonified 101 % of control

COc1cc2c(c(OC)c1OC)CCNC2
inactive: dose: 5.0 mg/kg/injection, schedule: Q01DX001 (ip), vehicle: saline 100 % of control | dose: 10.0 mg/kg/injection, schedule: Q01DX001 (ip), vehicle: saline 100 % of control | dose: 20.0 mg/kg/injection, schedule: Q01DX001 (ip), vehicle: saline 100 % of control | dose: 40.0 mg/kg/injection, schedule: Q01DX001 (ip), vehicle: saline 101 % of control

Cc1cccc(N)[n+]1CCC(=O)O
inactive: dose: 75.0 mg/kg/injection, schedule: Q04DX003 (ip), vehicle: saline 101 % of control | dose: 150.0 mg/kg/injection, schedule: Q04DX003 (ip), vehicle: saline 94 % of control | dose: 300.0 mg/kg/injection, schedule: Q04DX003 (ip), vehicle: saline 95 % of control
